Like-named read-outs stand apart in the source and are kept apart here.
Tests used:
Stage 5b mouse follicles = tested on: Stage 5b mouse follicles
Method: Cisplatin (CDDP) and cyclophosphamide (CTX) were obtained from Sigma-Aldrich (St. Louis, Mo.) and used at final concentrations of: 0.2, 1, and 5 μM. Nalbuphine and Raclopride were obtained from the NIH Clinical Collection (South San Francisco, Calif.) and used at final concentrations of: 0.2, 1, and 5 μM. Corexit EC 9500A was obtained via a Material Transfer Agreement from Nalco (Sugar Land, Tex.). CE was used at final concentrations of: 5 ppm, 10 ppm, 25 ppm, 50 ppm, 75 ppm, 100 ppm, 125 ppm, 150 ppm, 200 ppm, 250 ppm, 300 ppm, 350 ppm and 400 ppm, which correspond to 4.75 mg/L, 9.5 mg/L, 23.75 mg/L, 47.5 mg/L, 71.25 mg/L, 95 mg/L, 118.75 mg/L, 142.5 mg/L, […], 237.5 mg/L, 285 mg/L, 332.5 mg/L and 380 mg/L.
All experiments were performed using CD-1 female mice (Harlan Laboratories, Indianapolis, Ind.) that were housed in a controlled barrier facility at Northwestern University's Center of Comparative Medicine under constant temperature, humidity and light (12 h light/12 h dark). Food and water were provided ad libitum. All animal experiments were approved by the Institutional Animal Care and Use Committee and were in accordance with National Institutes of Health Guidelines. For follicle isolation, ovaries were dissected from 14-15-day-old mice and cut into 4 pieces. The tissue was incubated for 1 hour in L15 media (Invitrogen, Carlsbad, Calif., USA) containing 2% Liberase™ (Roche, Indianapolis, Ind.) and 1% DNase I (Worthington, Lakewood, N.J.). The enzymatic digestion was quenched by rinsing follicles in αMEM Glutamax (Invitrogen) containing 1% Fetal Bovine Serum (FBS, Invitrogen, Carlsbad, Calif.) and 0.5% Pen-Strep (Mediatech, Herndon, Va.). Type 5b multilayer secondary follicles (140-175 μm in diameter) were manually collected and cultured individually in wells of a 96-well plate (Pedersen and Peters, 1968; herein incorporated by reference in its entirety).
Follicles were cultured at 37° C. in a humidified atmosphere of 5% CO2 in air for up to 6 days. All chemical exposures were initiated on day 2 of culture. Half of the culture media was replaced with fresh GM every other day and spent media was stored at −20° C. for use in steroid hormone assays. Follicles were imaged at each media change using a Leica DM IRB inverted microscope equipped with 4× and 20× objectives (Leica Microsystems, Heidelberg, Germany) to assess survival, morphology and growth. Live follicles were defined as those that contained an oocyte surrounded completely by somatic cells. […] The percent of surviving follicles was calculated as the number of live follicles out of the total number of follicles plated. Antral cavity formation was assessed morphologically and characterized by the differentiation of outer layers of mural granulosa cells and inner layers of cumulus granulosa cells surrounding the oocyte as well as the presence of a fluid-filled structure.

[1] = tested on: human fallopian fimbriae FTE; assay: 3D human fimbriae culture: FTE proliferation by BrdU labeling; format: cell-based; conditions: insulin 5 μg/ml (ITS), H2O2 1 mM, E2 10 nM, n=6
Method: (§1) Tissues were micro-dissected in alpha-MEM (Gibco, Carlsbad, Calif.) with 1% penicillin-streptomycin (Invitrogen, Carlsbad, Calif.). Individual fimbriae were separated into ˜50 mm^3 pieces. A portion of the tissue was fixed in 2% paraformaldehyde for use as an uncultured control. For optimization studies, fimbriae were cultured without matrix, encapsulated in 0.5% alginate, or encapsulated in 0.5% alginate with 1 mg/ml collagen and 0.1% fibronectin, as previously described for murine cultures (King et al. J Vis Exp. 2011.; herein incorporated by reference in its entirety). For subsequent treatments, 0.5% alginate encapsulated fimbriae were randomly assigned to treatment groups, with at least five fimbriae per condition, per patient, in a 24-well plate containing alpha-MEM and 1% penicillin-streptomycin. […] Prior to fixation, fimbriae were labeled with 10 μM bromodeoxyurine (BrdU, Sigma-Aldrich) for 24 hours to denote proliferating cells. Fimbriae cultures were fixed (2% paraformaldehyde) followed by dehydration in ethanol and xylene, and embedment in paraffin.
Sections (5 μm) were cut and stained via hematoxylin and eosin for morphological analysis or immunohistochemistry was performed to localize proteins of interest as previously described (King et al. Endocr Relat Cancer. 2011. 18:627-42.; herein incorporated by reference in its entirety). Slides were rehydrated through an ethanol gradient, prior to 0.1M sodium citrate retrieval and peroxidase block. Tissues probed for BrdU were exposed to 4M HCl and 0.1M NaB4O7(Fisher Scientific) to denature DNA. All immunohistochemical reagents were obtained from Vector Laboratories, Inc (Burlingame, Calif.) unless otherwise stated. Tissues were blocked in 3% bovine serum albumin (Gemini, West Sacramento, Calif.)-TBS/10% serum and incubated with a primary antibody 1:50 acetylated tubulin (Cell Signaling, Cambridge, Mass.); 1:200 BrdU (AbCam, Cambridge, Mass.); 1:100 cytokeratin 8 (CK8, Developmental Studies Hybridoma Bank, Iowa City, Iowa); 1:50 p53 (Santa Cruz, Santa Cruz, Calif.); 1:100 PAX8 (Proteintech, Chicago, Ill.); 1:100 pH2AX (Cell Signaling); or 1:75 PR (Santa Cruz)) overnight at 4°. Tissues were washed in TBS-0.1% Tween and incubated with a secondary antibody (1:200), before being probed with ABC peroxidase standard, followed by detection with 3,3′-diaminobenzidine (DAB) and counterstained with hematoxylin.
Immunohistochemistry images were taken via a Nikon E600 microscope, DXM1200 digital camera and NIS Elements software (Nikon Instruments, Melville, N.Y.). For proliferation analysis, concurrent sections were stained for CK8 and BrdU. BrdU sections were imaged and epithelial cells (CK8 positive) were quantified for proliferation via ImageJ software (NIH, Bethesda, Md.). At least three fimbriae with 200 or more FTE were quantified for each treatment. […] Samples with p53 expression were quantified utilizing adjacent sections stained for the secretory cell marker PAX8 in a qualitative manner as described.

p53 stabilization in FTE = assay: 3D human fimbriae culture: p53 immunohistochemistry; format: cell-based; conditions: 2 and 7 days treatment, n=8
Method: as §1
Sections (5 μm) were cut and stained via hematoxylin and eosin for morphological analysis or immunohistochemistry was performed to localize proteins of interest as previously described (King et al. Endocr Relat Cancer. 2011. 18:627-42.; herein incorporated by reference in its entirety). Slides were rehydrated through an ethanol gradient, prior to 0.1M sodium citrate retrieval and peroxidase block. […]
Immunohistochemistry images were taken via a Nikon E600 microscope, DXM1200 digital camera and NIS Elements software (Nikon Instruments, Melville, N.Y.). […] BrdU sections were imaged and epithelial cells (CK8 positive) were quantified for proliferation via ImageJ software (NIH, Bethesda, Md.). At least three fimbriae with 200 or more FTE were quantified for each treatment. Analysis of p53 staining was similar, with at least three fimbriae per treatment, per patient analyzed. Samples with p53 expression were quantified utilizing adjacent sections stained for the secretory cell marker PAX8 in a qualitative manner as described.

[2] = tested on: human fallopian tube epithelium; assay: Fallopian epithelia cilia beating quantification; format: cell-based; conditions: 7 days culture; P4 added to E2
Method: Human fallopian tissue was obtained from routine hysterectomies from women in their reproductive years (ages range from 26 to 50 years old) and who had not undergone exogenous hormonal treatment for at least three months prior to surgery. Informed consent was obtained from each patient and approval granted by the ethics committee of the Northwestern University. Human fallopian tissue was kept in the DMEM/F12 medium with 10% FBS on ice and processed within 24 hours. The tissue was washed with warm PBS solution two times before being transferred into warm dissection medium (Liebowitz 15 with 0.5% P/S and 10% FBS). After cleaning connective tissue from outside of the fallopian tissue, the fallopian tube was cut open and the inner epithelia layer was mechanically dissected using forceps. […]
Fallopian epithelia layers were cultured in estradiol (E2) 1 nM, E2 1 nM+progesterone (P4) 10 nM, E2 0.1 nM+P4 50 nM or with solvent only negative control for 7 days. Cilia beating movies were acquired using an Andor Spinning Disk Confocal with 5 ms exposure time and 5 ms readout time. […] The Multiple Kymograph plugin for the NIH ImageJ software was used to quantify cilia beating frequency. In each movie, 8 clusters of cilia were picked for the cilia beating quantification.

[3] = tested on: OVGP1 expression in human fallopian epithelium; assay: OVGP1 immunoblot of cultured fallopian epithelium lysate; format: cell-based
Method: (§2) Human fallopian tissue was obtained from routine hysterectomies from women in their reproductive years (ages range from 26 to 50 years old) and who had not undergone exogenous hormonal treatment for at least three months prior to surgery. Informed consent was obtained from each patient and approval granted by the ethics committee of the Northwestern University. Human fallopian tissue was kept in the DMEM/F12 medium with 10% FBS on ice and processed within 24 hours. The tissue was washed with warm PBS solution two times before being transferred into warm dissection medium (Liebowitz 15 with 0.5% P/S and 10% FBS). After cleaning connective tissue from outside of the fallopian tissue, the fallopian tube was cut open and the inner epithelia layer was mechanically dissected using forceps. […] Tissue was cultured on 0.4 μm pore Millicell inserts (PICM03050, EMD Millipore Co, Billerica, Mass., USA) twelve-well plates with culture medium in a 37° C. and 5% CO2 incubator. Estrogen (E2) and progesterone (P4) used in tissue culture experiments were purchased from Sigma (St. Louis, Mo.).
(§3) Cultured human fallopian epithelia layers were homogenized with a minipestle in ice-cold lysis buffer (20 mM Tris-HCl, pH 8.0, 137 mM NaCl, 10% glycerol, 1% NP-40, 2 mM EDTA). Lysate normalized for protein content was loaded into NuPAGE 4-12% gradient Bis-Tris precast SDS-PAGE gels and transferred to a nitrocellulose membrane (Life Technologies, Carlsbad, Calif., USA). Blots were probed by polyclonal anti-OVGP1 antibody (LsBio, Cambridge, Mass.) overnight in 4° C. followed by anti-rabbit secondary antibody conjugated to horseradish peroxidase (Zymed, San Francisco, Calif.). Proteins were detected by ECL primer (GE HealthCare Life Sciences, Pittsburgh, Pa.) and exposed to X-ray film (Kodak, Rochester, N.Y.). The same blot was stripped using stripping buffer (Thermo Scientific, Hanover Park, Ill.) and re-probed with monoclonal anti-α-tubulin (Sigma, St. Louis, Mo.) followed by an anti-mouse secondary antibody conjugated to horseradish peroxidase. NIH ImageJ Imaging Software was used to quantify the density of western blot bands. Conditioned medium from fallopian epithelia cultures was collected and probed via western blot analysis using a polyclonal anti-hIGF1 antibody (abcam, Cambridge, Mass.). The blot was detected by the same method described above.

[4] = tested on: IGF1 secretion by human fallopian epithelium; assay: hIGF1 immunoblot of fallopian epithelium conditioned medium; format: cell-based
Method: as §2, §3
Fallopian epithelia layers cultured on […] inserts were pre-cultured in the alpha-MEM with 0.3% BSA, ITS and 1% P/S medium for two days. Cell culture medium was collected for the glucose ELISA assay (abcam, Cambridge, Mass.). Medium was diluted 1:500 and ELISA was performed according to the protocol provided by the kit. […]

endometrial cells = assay: Cell survival Wst-1 assay in endometrial cells cultured in 2D; format: cell-based, human; conditions: 2D culture, 72 hours
[5] = 28 days stepwise E2 and P4 treatment, P4 in the presence of E2

Compound	follicle survival (Stage 5b mouse follicles; 1 μM, day 4 of culture)	follicle survival (Stage 5b mouse follicles; 1 μM, day 6 of culture)	follicle survival (Stage 5b mouse follicles; 5 μM, day 4 of culture)	follicle survival (Stage 5b mouse follicles; 5 μM, day 6 of culture)	FTE proliferation (percentage of total FTE cells, BrdU) ([1]; 7 days in culture)	p53 stabilization (p53 stabilization in FTE)	other results
[NH2][Pt]([NH2])([Cl])[Cl] [CDDP, Cisplatin]	76.31%	58.38%	47.83%	12.56%	–	–	concentration at which complete release of the oocyte from the follicle was first observed (Stage 5b mouse follicles): 5000 nM
O=P1(N(CCCl)CCCl)NCCCO1 (centres unmarked) [CTX, cyclophosphamide]	57.23%	32.43%	36.41%	11.49%	–	–	follicle survival (Stage 5b mouse follicles; 0.2 μM, day 6 of culture (treated on day 2)): 71.8%; follicle morphology (Stage 5b mouse follicles; increasing concentrations (0.2, 1, 5 μM)): disorganized follicles with dark granulosa cells and little evidence of antral cavity formation; concentration at which complete release of the oocyte from the follicle was first observed (Stage 5b mouse follicles; most severe phenotype): 1000 nM
OO [H2O2]	–	–	–	–	2.2±0.5%	no factor notably induced p53 stabilization	FTE proliferation (percentage of total FTE cells, BrdU) ([1]; 2 days in culture): 4.0±1.1%
CC(=O)[C@H]1CC[C@H]2[C@@H]3CCC4=CC(=O)CC[C@]4(C)[C@H]3CC[C@]12C [P4, progesterone]	–	–	–	–	–	–	cilia beating frequency (CBF) [2]: decreased; OVGP1 expression in the fallopian lysate ([3]; 7 days culture, P4 added to E2): suppressed; OVGP1 expression [3, 5]: suppressed; IGF1 secretion ([4]; 7 days culture, 1 nM E2, P4 added to E2): attenuated; IGF1 secretion [4, 5]: suppressed
C[C@]12CC[C@H]3[C@@H](CCC4=CC(=O)CC[C@@]43C)[C@@H]1CC[C@@H]2O [testosterone]	–	–	–	–	–	–	toxicity on endometrial cells (cell survival) (endometrial cells): no toxicity
Insulin: insulin 5 μg/ml given via ITS supplement (insulin; transferrin; selenite)	–	–	–	–	4.1±0.9%	no factor notably induced p53 stabilization	–
